Experimental data from patent publication US8796258B2, “Cyclic azabenzimidazole derivatives useful as anti-diabetic agents” (Merck Sharp & Dohme Corp., priority 2011, dated 2014).

Legend:
ob/ob and db/db mice = details: cited from earlier work
[1] = test system: obese Zucker (fa/fa) rats; details: 7 week administration; cited from earlier work
[2] = test system: rats displaying characteristics of insulin resistance syndrome; details: rat, in vivo; cited from earlier work
[3] = molecular target: T1, recombinant human AMPK complex 1 (containing α1β1γ1) (Homo sapiens, UniProt Q13131+Q9Y478); test: AMPKSAMSF in vitro AMPK activation assay; format: biochemical; details: recombinant human AMPK complex 1 (α1β1γ1); for Emax: 10-point titration, read-out: % Maximum AMP Activation of human AMPK Complex 1; for EC50: inflection point reflecting 50% of the maximum activation
T1 construct: made in house; host or cells: Spodoptera frugiperda Sf21 cells, baculovirus (pBacPak9 clones, triple infection)
Method: The recombinant human AMPK complex 1 (containing α1β1γ1) was obtained from baculovirus expression system. Recombinant viruses were generated by cotransfection of AMPK/pBacPak9 clones with Baculogold baculovirus DNA (Pharmingen) in spodoptera frugiperda 21 cells according to the manufacturer's instructions. Each round of virus amplification was performed for 5 days in Grace's medium containing 10% serum. Virus that had been subjected to three rounds of amplification was used for all protein production procedures. To express the AMPK complex, sf21 cells were adapted to serum free medium (SF900 II, Invitrogen) by sequential dilution from serum containing stocks into SF9001I medium and maintained in shaker flasks at 90 rpm at 27° C. The recombinant AMPK enzyme complex was produced by triple infection, one recombinant virus for each of the subunits, in sf21 cells under serum free conditions. Cells were infected in log phase, 1×10^6 cells/ml, at a multiplicity of infection of […]. Cells were harvested by centrifugation at 10,000×g for 15 minutes after 72 hours of infection with viruses. The insect cell pellet from 2 liters of culture was resuspended in 50 ml lysis buffer (20 mM Tris-HCl, 50 mM NaCl, 50 mM NaF, 30 mM Na PPi, 0.25 M sucrose, 10 mM ZnCl2, 2 mM DTT, 0.4 mg/ml digitonin) and subjected to two cycles of freeze-thaw lysis in a dry-ice ethanol bath. Insoluble material was removed by centrifugation at 10,000×g and the supernatant was fractionated with use of polyethylene glycol (PEG). The protein fraction precipitating between 2.5 and 6% PEG was used for further purification using a Blue-Sepharose step (Zhou et al, J. Clin. Invest. 108, 1167-1174, 2001).
The in vitro AMPK activation assay is performed in a volume of 30 μl in a 384-well plate. Enzyme reactions were assembled in the microtiter plate by adding 15 μl of 2× enzyme in assay buffer (20 mM HEPES, pH 7.3, 5 mM MgCl2, 3 mM DTT, 0.01% Brij 35 and CamK Kinase, to activate AMPK) to wells which contained either DMSO or compound. The reaction was initiated with the addition of 15 μl 2× substrate mixture containing 200 μM ATP, and 3.0 μM fluorescently labeled SAMS (5-FAM-HMRSAMSGLHLVKRR-COOH) in assay buffer. After 45-minute incubation at 25° C., the reaction was stopped by the addition of 70 μl stop buffer (100 mM HEPES, pH 7.3, 40 mM EDTA, 0.015% Brij 35). Phosphorylated 5-FAM SAMS product is assessed using a Caliper EZ Reader LabChip microfluidics reader. Product conversion is determined by calculating the peak heights of the substrate and product and reporting the product/(product+substrate) peak ratio. The 10-point titration data were expressed as % maximum AMP activation. The results were plotted using 4 parameter fit and the inflection point reflecting 50% of the maximum activation was reported as the EC50.

T1 sequence (Q13131 whole entry): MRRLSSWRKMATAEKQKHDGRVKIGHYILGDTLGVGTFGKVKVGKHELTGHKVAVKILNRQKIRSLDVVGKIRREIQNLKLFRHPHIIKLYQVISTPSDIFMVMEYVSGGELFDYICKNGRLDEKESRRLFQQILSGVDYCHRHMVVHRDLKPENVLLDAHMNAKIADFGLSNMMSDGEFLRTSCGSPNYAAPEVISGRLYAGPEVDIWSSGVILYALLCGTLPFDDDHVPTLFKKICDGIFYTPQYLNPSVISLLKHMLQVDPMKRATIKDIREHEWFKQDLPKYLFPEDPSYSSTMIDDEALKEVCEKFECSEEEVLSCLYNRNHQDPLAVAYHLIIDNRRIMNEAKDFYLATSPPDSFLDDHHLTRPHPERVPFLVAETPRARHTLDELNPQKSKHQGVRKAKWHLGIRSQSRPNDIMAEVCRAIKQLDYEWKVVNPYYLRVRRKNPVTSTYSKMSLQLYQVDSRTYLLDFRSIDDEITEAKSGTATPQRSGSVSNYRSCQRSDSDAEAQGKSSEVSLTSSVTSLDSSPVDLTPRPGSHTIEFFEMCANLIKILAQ
T1 sequence (Q9Y478 whole entry): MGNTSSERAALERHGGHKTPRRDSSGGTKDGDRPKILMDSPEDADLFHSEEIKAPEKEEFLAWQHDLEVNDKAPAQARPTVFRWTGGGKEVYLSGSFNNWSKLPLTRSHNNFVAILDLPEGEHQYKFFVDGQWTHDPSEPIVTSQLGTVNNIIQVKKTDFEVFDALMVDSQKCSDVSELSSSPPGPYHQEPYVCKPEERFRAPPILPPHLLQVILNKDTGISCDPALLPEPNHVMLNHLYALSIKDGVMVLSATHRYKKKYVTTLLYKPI
T1 sequence (P54619 whole entry partner): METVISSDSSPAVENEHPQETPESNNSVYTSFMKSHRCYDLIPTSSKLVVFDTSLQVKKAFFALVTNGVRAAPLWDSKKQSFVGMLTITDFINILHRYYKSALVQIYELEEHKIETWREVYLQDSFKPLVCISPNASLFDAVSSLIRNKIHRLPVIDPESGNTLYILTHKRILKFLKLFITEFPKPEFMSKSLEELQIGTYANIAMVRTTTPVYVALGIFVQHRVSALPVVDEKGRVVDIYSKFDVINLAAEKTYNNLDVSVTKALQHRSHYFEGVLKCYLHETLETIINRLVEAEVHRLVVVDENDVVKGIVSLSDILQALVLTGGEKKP

Row | Structure (SMILES) | Emax [3] | EC50 [3] | further results
1 | NC(=O)c1ncn([C@@H]2O[C@H](CO)[C@@H](O)[C@H]2O)c1N [AICAR] | – | – | glucose homeostasis (ob/ob and db/db mice; insulin-resistant diabetic (ob/ob) mice): improvement in glucose homeostasis; blood glucose reduction (ob/ob and db/db mice; ob/ob and db/db mice, following 8 weeks of administration): 35%; HDL cholesterol [1]: increase in HDL cholesterol; glucose metabolism as assessed by an oral glucose tolerance test [1]: normalization of glucose metabolism; plasma triglycerides and free fatty acids [1]: reduction in plasma triglycerides and free fatty acids; blood pressure [2]: reduction of blood pressure
2 | Cc1ccc(Oc2nc3nc(-c4ccc(N5CCCC5)cc4)c(Cl)cc3[nH]2)cc1C(=O)O [Example 3] | 681% | 1 nM | –
3 | O=C(O)[C@H]1CC[C@H](Oc2nc3nc(-c4ccc(-c5ccccc5)cc4)c(Cl)cc3[nH]2)CC1 [Example 29] | 798% | 7 nM | –
4 | O=C(O)C1CCC(Oc2nc3nc(-c4ccc(N5CCCC5)cc4)c(Cl)cc3[nH]2)CC1 (centres unmarked) [Example 30] | 852% | – | –
5 | O=C(O)[C@H]1CC[C@H](Oc2nc3nc(-c4ccc(N5CCCC5)cc4)c(Cl)cc3[nH]2)CC1 [Example 30] | – | 24 nM | –
6 | CS(=O)(=O)c1ccc(-c2ccc(-c3nc4nc(O[C@H]5CC[C@H](C(=O)O)CC5)[nH]c4cc3Cl)cc2)cc1 [Example 79, Trans-4-({6-chloro-5-[4′-(methylsulfonyl)biphenyl-4-yl]-1H-imidazo[4,5-b]pyridin-2-yl}oxy)cyclohexanecarboxylic acid] | 661% | 5 nM | –
7 | OCC1(CO)CC(Oc2nc3nc(-c4ccc(-c5ccccc5)cc4)c(Cl)cc3[nH]2)C1 [Example 111] | 813% | 28 nM | –
8 | CC(C)(O)[C@H]1C[C@@H](Oc2nc3nc(-c4ccc(-c5ccc(S(C)(=O)=O)cc5)cc4)c(Cl)cc3[nH]2)C1 [Example 130, 2-[cis-3-({6-chloro-5-[4′-(methylsulfonyl)biphenyl-4-yl]-1H-imidazo[4,5-b]pyridin-2-yl}oxy)cyclobutyl]propan-2-ol] | 440% | 47 nM | –
9 | OC[C@H]1OC[C@H](Oc2nc3nc(-c4ccc(-c5ccccc5)cc4)c(Cl)cc3[nH]2)C[C@@H]1O [Example 140, (2R3S,5R)-5-[[6-chloro-5-(4-phenylphenyl)-1H-imidazo[4,5-b]pyridin-2-yl]oxy]-2-(hydroxymethyl)tetrahydropyran-3-ol] | 668% | 38 nM | –
10 | O[C@@H]1CO[C@H]2[C@@H]1OC[C@H]2Oc1nc2nc(-c3ccc(-c4ccccc4)cc3)c(Cl)cc2[nH]1 [Example 159, 1,4:3,6-dianhydro-2-O-[5-(biphenyl-4-yl)-6-chloro-1H-imidazo[4,5-b]pyridin-2-yl]-D-mannitol] | 373% | 4 nM | –
11 | O[C@@H]1CO[C@H]2[C@@H]1OC[C@H]2Oc1nc2nc(-c3ccc(-c4ccc(-n5cccn5)cc4)cc3)c(Cl)cc2[nH]1 [Example 163, (3R,3aR,6R,6aR)-6-[[6-chloro-5-[4-(4-pyrazol-1-ylphenyl)phenyl]-1H-imidazo[4,5-b]pyridin-2-yl]oxy]-2,3,3a,5,6,6a-hexahydrofuro[3,2-b]furan-3-ol] | 362% | 0.3 nM | –
12 | CC(C)(O)Cn1cc2c(n1)CN(c1ccc(-c3nc4nc(O[C@@H]5CO[C@H]6[C@@H]5OC[C@H]6O)[nH]c4cc3Cl)cc1)C2 [Example 171, (3R,3aR,6R,6aR)-6-[[6-chloro-5-[4-[2-(2-hydroxy-2-methyl-propyl)-4,6-dihydropyrrolo[3,4-c]pyrazol-5-yl]phenyl]-1H-imidazo[4,5-b]pyridin-2-yl]oxy]-2,3,3a,5,6,6a-hexahydrofuro[3,2-b]furan-3-ol] | 252% | 1 nM | –
13 | CC(C)(F)Cn1cc2c(n1)CN(c1ccc(-c3nc4nc(O[C@@H]5CO[C@H]6[C@@H]5OC[C@H]6O)[nH]c4cc3Cl)cc1)C2 [Example 172] | 249% | 2 nM | –
14 | O[C@@H]1CO[C@H]2[C@@H]1OC[C@H]2Oc1nc2nc(-c3ccc(-n4cc5c(n4)CNC5)cc3)c(Cl)cc2[nH]1 [Example 177] | 368% | 18 nM | –
15 | O=S(=O)(NC1CC1)n1cc2c(n1)CN(c1ccc(-c3nc4nc(O[C@@H]5CO[C@H]6[C@@H]5OC[C@H]6O)[nH]c4cc3Cl)cc1)C2 [Example 178] | 223% | 1 nM | –
16 | O[C@@H]1CO[C@H]2[C@@H]1OC[C@H]2Oc1nc2nc(-c3ccc(-c4ccc(-n5cccn5)nc4)cc3)c(Cl)cc2[nH]1 [Example 179, (3R,3aR,6R,6aR)-6-[[6-chloro-5-[4-(6-pyrazol-1-yl-3-pyridyl)phenyl]-1H-imidazo[4,5-b]pyridin-2-yl]oxy]-2,3,3a,5,6,6a-hexahydrofuro[3,2-b]furan-3-ol] | 292% | 0.9 nM | –
17 | O[C@@H]1CO[C@H]2[C@@H]1OC[C@H]2Oc1nc2nc(-c3ccc(-c4ccc(-n5cncn5)cc4)cc3)c(Cl)cc2[nH]1 [Example 180, (3R,3a,6R,6aR)-6-[[6-chloro-5-[4-[4-(1,2,4-triazol-1-yl)phenyl]phenyl]-1H-imidazo[4,5-b]pyridin-2-yl]oxy]-2,3,3a,5,6,6a-hexahdrofuro[3,2-b]furan-3-ol] | 350% | 0.3 nM | –
18 | CC(C)(O)Cc1cnn(-c2ccc(-c3ccc(-c4nc5nc(O[C@@H]6CO[C@H]7[C@@H]6OC[C@H]7O)[nH]c5cc4Cl)cc3)cc2)c1 [Example 190] | 374% | 1 nM | –
19 | CC(C)(O)Cc1cnn(-c2ccc(-c3ccc(-c4nc5nc(O[C@@H]6CO[C@H]7[C@@H]6OC[C@H]7O)[nH]c5cc4Cl)cc3)nc2)c1 [Example 202, (3R,3aR,6R,6aR)-6-[[6-chloro-5-[4-[5-[4-(2-hydroxy-2-methyl-propyl)pyrazol-1-yl]-2-pyridyl]phenyl]-1H-imidazo[4,5-b]pyridin-2-yl]oxy]-2,3,3a,5,6,6a-hexahydrofuro[3,2-b]furan-3-ol] | 372% | 1 nM | –
20 | O[C@@H]1CO[C@@H]2C(Oc3nc4nc(-c5ccc(-c6ccc(-c7nnn[nH]7)cc6)cc5)c(Cl)cc4[nH]3)CO[C@H]12 (stereo partly drawn) [Example 207, (3R,3aR,6R,6R)-6-[[6-chloro-5-[4-[4-(1H-tetrazol-5-yl)phenyl]phenyl]-1H-imidazo[4,5-b]pyridin-2-yl]oxy]-2,3,3a,5,6,6a-hexahydrofuro[3,2-b]furan-3-ol] | 289% | 0.5 nM | –
21 | O[C@@H]1CO[C@H]2[C@@H]1OC[C@H]2Oc1nc2nc(-c3ccc(C#CC4CCNCC4)cc3)c(Cl)cc2[nH]1 [Example 214, (3R,3aR,6R,6aR)-6-((6-chloro-5-(4-(piperidin-4-ylethynyl)phenyl)-1H-imidazo[4,5-b]pyridin-2-yl)oxy)hexahydrofuro[3,2-b]furan-3-ol] | 386% | 6 nM | –
